Measured values reported in patent US20090131515A1, “Combination of antidiabetic drugs” (SIGMA-TAU INDUSTRIE FARMACEUTICHE RIUNITE S.p.A., priority 2003, published 2009).
“And” between values parts separate entries of the source, which are not always exact repeats. Equal entries are not always repeated. Where two headings read alike, the source gives them in different places.

Key:
[1] = system: ob/ob mice; assay: Insulin Suppression Test (IST), blood glucose of ob/ob mice; format: in vivo, mouse; settings: for Blood glucose levels in the IST: male ob/ob mice, postabsorption, 8 hours after last treatment, mean ± s.e.; for Reduction of hyperglycaemia in the IST: ob/ob mouse
Source text: (§1) The B6. V-Lep ob/ob, C57BL/KsJ db/db and C57BL/6 mice used in the experiments were supplied by Jackson Lab. (via Charles River).
(§2) Blood samples were taken from ob/ob and db/db mice in standard environmental conditions, on a normal diet (4 RF21, Mucedola) and from C57BL/6J mice on a high-fat diet (D-12331, Research Diets) for 3 months, in postabsorption conditions (fasting from 8.30 a.m. to 4.30 p.m.) from the caudal vein, with the aid of a Jelco 22G catheter (Johnson and Johnson).
(§3) The mice were treated orally twice daily (at 8.30 a.m. and 6.30 p.m.) with ST1326 at the dose of 30 mg/kg and with metformin at the dose of 200 mg/kg, alone or in combination.
(§4) Blood samples were taken on various different days after administration of the products and in different nutritional conditions for the serum glucose determinations, OGTT (Oral Glucose Tolerance Test) and IST (Insulin Suppression Test: Fujita et al., Diabetes 32: 804-810, 1983; Meglasson et al., J. Pharm. Exp. Therap. 266: 1454-1462, 1993; Luo et al., J. Pharm. Exp. Therap. 288: 529-534, 1999).
In the IST, blood samples were taken 60 min after subcutaneous loading of glucose (3 g/kg), insulin (Humulin R., Lilly 2 U/kg) and somatostatin (0.5 mg/kg).

[2] = system: db/db mice; assay: Blood glucose of db/db mice in postabsorption conditions, ST1326 and metformin alone or in combination; format: in vivo, mouse; settings: male db/db mice, ST1326 30 mg/kg and metformin 200 mg/kg alone or in combination, twice daily for 16 days, 6 hours after last treatment, mean ± s.e.
Source text: as §1, §2, §3, §4

[3] = system: type 2 diabetes patients; settings: cited from earlier work
[4] = system: C57BL/6 mice on a high-fat diet; assay: Oral Glucose Tolerance Test (OGTT) in C57BL/6 mice on a high-fat diet; format: in vivo, mouse; settings: male C57BL/6 mice on high-fat diet; for Blood glucose in the OGTT, 0 min: ST1326 30 mg/kg and metformin 200 mg/kg alone or in combination, twice daily for 35 days, postabsorption, 6 hours after last treatment; for Blood glucose in the OGTT, 30 min / Blood glucose in the OGTT, 60 min / Blood glucose in the OGTT, 120 min / Blood glucose in the OGTT, AUC: same treatment for 35 days; for Blood glucose in the OGTT, 30 min: 30 min after glucose loading; for Blood glucose in the OGTT, 60 min: 60 min after glucose loading; for Blood glucose in the OGTT, 120 min: 120 min after glucose loading; for Blood glucose in the OGTT, AUC: AUC 0-120 min
Source text: (§5) An example is the C57BL/6 mouse, which, as a result of exposure to a high-fat diet, develops not only insulin resistance but also mild hyperglycaemia (Surwit et al., 37: 1163-1167, 1988; Luo et al., Metabolism 47: 663-668,1998).
as §1, §2, §3, §4
(§6) In the OGTT, blood samples were taken 0, 30, 60 and 120 minutes after glucose loading (3 g/kg).

[5] = system: KKAy mouse; settings: cited from earlier work
[6] = system: db/db mice; assay: Oral Glucose Tolerance Test (OGTT) in db/db mice; format: in vivo, mouse; settings: male db/db mice, fasting overnight; for Blood glucose in the OGTT, 0 min: ST1326 30 mg/kg and metformin 200 mg/kg alone or in combination, twice daily for 37 days, 15 hours after last treatment; for Blood glucose in the OGTT, 30 min / Blood glucose in the OGTT, 60 min / Blood glucose in the OGTT, 120 min / Blood glucose in the OGTT, AUC: same treatment for 37 days; for Blood glucose in the OGTT, 30 min: 30 min after glucose loading; for Blood glucose in the OGTT, 60 min: 60 min after glucose loading; for Blood glucose in the OGTT, 120 min: 120 min after glucose loading; for Blood glucose in the OGTT, AUC: AUC 0-120 min
Source text: as §1, §2, §3, §4, §6

[7] = system: C57BL/6J mice on a high-fat diet; assay: Blood glucose of C57BL/6J mice on a high-fat diet, postabsorption conditions; format: in vivo, mouse; settings: male C57BL/6J mice on high-fat diet, ST1326 30 mg/kg and metformin 200 mg/kg alone or in combination, twice daily for 15 days, 6 hours after last treatment, mean ± s.e.
Source text: as §5, §1, §2, §3, §4

[8] = system: db/db mice; assay: Serum glucose of db/db mice treated with ST1326 for 45 days, postabsorption conditions; format: in vivo, mouse; settings: for Lowering serum glucose: db/db mice; for Serum glucose levels: male db/db mice, postabsorption, 8 hours after last treatment, mean ± s.e.
Source text: as §1, §2

[9] = system: ob/ob mice; assay: Blood glucose of ob/ob mice in feeding conditions; format: in vivo, mouse; settings: male ob/ob mice, ST1326 30 mg/kg and metformin 200 mg/kg alone or in combination, twice daily for 11 days, 15 hours after last treatment, mean ± s.e.
Source text: as §1, §2, §3, §4

[10] = ST1326 30 mg/kg and metformin 200 mg/kg alone or in combination, twice daily for 18 days

CN(C)C(=N)N=C(N)N [METFORMIN, metformin]
Blood glucose levels in the IST [1, 10]: 433.7 ± 34.8 mg/dL | Blood glucose levels in the IST ([1]; oral metformin 300 mg/kg twice daily for 8 days): 412.1 ± 3.5 □ mg/dl | Reduction of hyperglycaemia in the IST ([1]; 200 mg/kg/day): ineffective | Reduction of hyperglycaemia in the IST ([1]; 600 mg/kg/day): 22% | Blood glucose levels [2]: 337.8 ± 33.1 mg/dL | Reduction of hyperglycaemia ([3]; in combination with sulphonylureas): 25% | Reduction of hyperglycaemia ([3]; monotherapy after the failure of diet and physical exercise): 20% and 13-37% | Incidence of diarrhoea, nausea and gastrointestinal disorders ([3]; patients on metformin): approximately 20% | Blood glucose in the OGTT, 0 min [4]: 141.1 ± 11.4 mg/dL | Blood glucose in the OGTT, 30 min [4]: 241.2 ± 18.9 mg/dL | Blood glucose in the OGTT, 60 min [4]: 212.3 ± 5.0 mg/dL | Blood glucose in the OGTT, 120 min [4]: 186.2 ± 15.1 mg/dL | Blood glucose in the OGTT, AUC [4]: 24500 ± 1180 mg·min/dL | Reduction of hyperglycaemia ([5]; 200 mg/kg/day): ineffective | Reduction of hyperglycaemia ([5]; 900 mg/kg/day): 50% | Blood glucose in the OGTT, 0 min [6]: 195.5 ± 21.5 mg/dL | Blood glucose in the OGTT, 30 min [6]: 530.9 ± 34.6 mg/dL | Blood glucose in the OGTT, 60 min [6]: 456.8 ± 52.4 mg/dL | Blood glucose in the OGTT, 120 min [6]: 344.4 ± 40.9 mg/dL | Blood glucose in the OGTT, AUC [6]: 49700 ± 4720 mg·min/dL | Blood glucose levels [7]: 146.1 ± 9.2 mg/dL

CCCCCCCCCCCCCCNC(=O)N[C@H](CC(=O)[O-])C[N+](C)(C)C [ST1326, R-4-trimethylammonio-3-(tetradecylcarbamoyl)-amino-butyrate]
Lowering serum glucose ([8]; dose of 40 mg/kg/day): inactive | Lowering serum glucose ([8]; dose of 100 mg/kg/day): effective | Serum glucose levels ([8]; oral 20 mg/kg twice daily for 45 days): 562 ± 40 mg/dL | Serum glucose levels ([8]; oral 50 mg/kg twice daily for 45 days): 350 ± 48 Δ mg/dl | Blood glucose levels in the IST [1, 10]: 524.2 ± 56.2 mg/dL | Blood glucose levels [2]: 370.7 ± 30.0 mg/dL | Blood glucose in the OGTT, 0 min [4]: 156.0 ± 7.8 mg/dL | Blood glucose in the OGTT, 30 min [4]: 236.3 ± 11.2 mg/dL | Blood glucose in the OGTT, 60 min [4]: 207.0 ± 9.9 mg/dL | Blood glucose in the OGTT, 120 min [4]: 212.9 ± 8.6 mg/dL | Blood glucose in the OGTT, AUC [4]: 25100 ± 652 mg·min/dL | Blood glucose in the OGTT, 0 min [6]: 175.3 ± 25.6 mg/dL | Blood glucose in the OGTT, 30 min [6]: 557.2 ± 30.6 mg/dL | Blood glucose in the OGTT, 60 min [6]: 498.3 ± 23.5 mg/dL | Blood glucose in the OGTT, 120 min [6]: 284.6 ± 20.8 mg/dL | Blood glucose in the OGTT, AUC [6]: 50300 ± 2430 mg·min/dL | Blood glucose levels [9]: 394.8 ± 25.7 mg/dL | Blood glucose levels [7]: 167.3 ± 4.7 mg/dL
